These results are taken from patent US10344060B2 (priority 2013, dated 2019).

For orientation: IC50 means the midpoint of a concentration-inhibition curve.

One experiment addresses hNav1.4 (Homo sapiens, UniProt P35499). Put plainly: cell-based. It counts as cell-based. Particulars: Table 12; ratio of PX tonic IC50 values.
In another experiment the target is hNav1.7 (Homo sapiens, UniProt Q15858). Put plainly: cell-based. The experiment is classed as cell-based. Particulars: for Nav1.4/Nav1.7 / Nav1.5/Nav1.7: ratio of PX tonic IC50 values, Table 11.
[1] abbreviates: Table 12, PatchXpress, tonic block, read-out: PX hNav1.7 Tonic IC50.

Where two headings read alike, the source gives them in different places. Bounds are passed on as bounds.

Chain of hNav1.7 (Q15858 whole entry): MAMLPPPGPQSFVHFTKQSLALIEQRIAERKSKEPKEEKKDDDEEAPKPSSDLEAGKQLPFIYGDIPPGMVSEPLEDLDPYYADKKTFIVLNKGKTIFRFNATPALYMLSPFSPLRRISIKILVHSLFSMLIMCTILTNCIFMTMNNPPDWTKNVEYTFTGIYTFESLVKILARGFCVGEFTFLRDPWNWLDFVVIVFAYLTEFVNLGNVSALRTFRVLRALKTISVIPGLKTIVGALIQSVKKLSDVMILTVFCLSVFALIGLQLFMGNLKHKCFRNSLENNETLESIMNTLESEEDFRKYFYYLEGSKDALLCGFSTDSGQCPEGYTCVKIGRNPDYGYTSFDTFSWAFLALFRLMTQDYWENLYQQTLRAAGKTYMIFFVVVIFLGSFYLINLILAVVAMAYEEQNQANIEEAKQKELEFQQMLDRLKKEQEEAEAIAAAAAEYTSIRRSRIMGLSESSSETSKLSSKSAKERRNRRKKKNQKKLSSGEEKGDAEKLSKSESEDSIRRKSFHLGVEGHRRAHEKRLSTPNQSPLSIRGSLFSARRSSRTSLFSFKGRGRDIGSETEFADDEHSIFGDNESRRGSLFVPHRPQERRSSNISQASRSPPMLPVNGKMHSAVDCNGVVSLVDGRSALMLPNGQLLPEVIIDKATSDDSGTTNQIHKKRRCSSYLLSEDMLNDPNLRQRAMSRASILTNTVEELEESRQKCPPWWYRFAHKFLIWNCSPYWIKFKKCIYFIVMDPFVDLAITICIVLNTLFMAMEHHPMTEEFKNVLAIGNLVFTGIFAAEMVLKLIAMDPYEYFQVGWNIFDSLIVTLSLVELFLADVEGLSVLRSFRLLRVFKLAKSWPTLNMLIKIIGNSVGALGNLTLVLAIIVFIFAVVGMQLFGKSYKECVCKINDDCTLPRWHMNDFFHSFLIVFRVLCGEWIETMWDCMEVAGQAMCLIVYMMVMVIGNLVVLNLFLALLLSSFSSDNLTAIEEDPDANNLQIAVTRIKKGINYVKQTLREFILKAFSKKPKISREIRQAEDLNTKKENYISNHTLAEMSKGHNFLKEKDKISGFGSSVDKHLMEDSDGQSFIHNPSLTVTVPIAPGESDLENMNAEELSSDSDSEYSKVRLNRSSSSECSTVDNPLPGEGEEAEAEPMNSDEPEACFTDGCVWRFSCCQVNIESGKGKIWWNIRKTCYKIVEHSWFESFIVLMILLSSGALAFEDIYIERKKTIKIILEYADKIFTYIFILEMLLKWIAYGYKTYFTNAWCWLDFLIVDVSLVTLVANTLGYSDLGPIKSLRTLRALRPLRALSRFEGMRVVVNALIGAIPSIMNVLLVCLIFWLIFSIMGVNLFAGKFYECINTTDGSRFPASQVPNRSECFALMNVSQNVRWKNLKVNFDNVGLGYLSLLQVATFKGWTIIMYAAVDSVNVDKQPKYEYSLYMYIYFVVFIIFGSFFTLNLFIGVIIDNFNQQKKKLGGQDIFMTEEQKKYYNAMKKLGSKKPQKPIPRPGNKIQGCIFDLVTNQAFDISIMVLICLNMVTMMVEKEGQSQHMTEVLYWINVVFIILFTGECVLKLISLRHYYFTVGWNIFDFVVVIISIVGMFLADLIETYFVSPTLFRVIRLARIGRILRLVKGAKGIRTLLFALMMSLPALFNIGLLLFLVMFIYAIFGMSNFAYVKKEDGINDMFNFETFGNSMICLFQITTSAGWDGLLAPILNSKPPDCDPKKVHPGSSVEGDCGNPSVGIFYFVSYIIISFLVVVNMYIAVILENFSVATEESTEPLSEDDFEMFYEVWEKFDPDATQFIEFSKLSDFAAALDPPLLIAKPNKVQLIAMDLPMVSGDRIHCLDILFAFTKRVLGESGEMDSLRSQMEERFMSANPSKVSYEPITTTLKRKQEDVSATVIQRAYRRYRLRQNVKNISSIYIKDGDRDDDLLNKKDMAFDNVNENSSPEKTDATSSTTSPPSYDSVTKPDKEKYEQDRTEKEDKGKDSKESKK
Chain of hNav1.4 (P35499 whole entry): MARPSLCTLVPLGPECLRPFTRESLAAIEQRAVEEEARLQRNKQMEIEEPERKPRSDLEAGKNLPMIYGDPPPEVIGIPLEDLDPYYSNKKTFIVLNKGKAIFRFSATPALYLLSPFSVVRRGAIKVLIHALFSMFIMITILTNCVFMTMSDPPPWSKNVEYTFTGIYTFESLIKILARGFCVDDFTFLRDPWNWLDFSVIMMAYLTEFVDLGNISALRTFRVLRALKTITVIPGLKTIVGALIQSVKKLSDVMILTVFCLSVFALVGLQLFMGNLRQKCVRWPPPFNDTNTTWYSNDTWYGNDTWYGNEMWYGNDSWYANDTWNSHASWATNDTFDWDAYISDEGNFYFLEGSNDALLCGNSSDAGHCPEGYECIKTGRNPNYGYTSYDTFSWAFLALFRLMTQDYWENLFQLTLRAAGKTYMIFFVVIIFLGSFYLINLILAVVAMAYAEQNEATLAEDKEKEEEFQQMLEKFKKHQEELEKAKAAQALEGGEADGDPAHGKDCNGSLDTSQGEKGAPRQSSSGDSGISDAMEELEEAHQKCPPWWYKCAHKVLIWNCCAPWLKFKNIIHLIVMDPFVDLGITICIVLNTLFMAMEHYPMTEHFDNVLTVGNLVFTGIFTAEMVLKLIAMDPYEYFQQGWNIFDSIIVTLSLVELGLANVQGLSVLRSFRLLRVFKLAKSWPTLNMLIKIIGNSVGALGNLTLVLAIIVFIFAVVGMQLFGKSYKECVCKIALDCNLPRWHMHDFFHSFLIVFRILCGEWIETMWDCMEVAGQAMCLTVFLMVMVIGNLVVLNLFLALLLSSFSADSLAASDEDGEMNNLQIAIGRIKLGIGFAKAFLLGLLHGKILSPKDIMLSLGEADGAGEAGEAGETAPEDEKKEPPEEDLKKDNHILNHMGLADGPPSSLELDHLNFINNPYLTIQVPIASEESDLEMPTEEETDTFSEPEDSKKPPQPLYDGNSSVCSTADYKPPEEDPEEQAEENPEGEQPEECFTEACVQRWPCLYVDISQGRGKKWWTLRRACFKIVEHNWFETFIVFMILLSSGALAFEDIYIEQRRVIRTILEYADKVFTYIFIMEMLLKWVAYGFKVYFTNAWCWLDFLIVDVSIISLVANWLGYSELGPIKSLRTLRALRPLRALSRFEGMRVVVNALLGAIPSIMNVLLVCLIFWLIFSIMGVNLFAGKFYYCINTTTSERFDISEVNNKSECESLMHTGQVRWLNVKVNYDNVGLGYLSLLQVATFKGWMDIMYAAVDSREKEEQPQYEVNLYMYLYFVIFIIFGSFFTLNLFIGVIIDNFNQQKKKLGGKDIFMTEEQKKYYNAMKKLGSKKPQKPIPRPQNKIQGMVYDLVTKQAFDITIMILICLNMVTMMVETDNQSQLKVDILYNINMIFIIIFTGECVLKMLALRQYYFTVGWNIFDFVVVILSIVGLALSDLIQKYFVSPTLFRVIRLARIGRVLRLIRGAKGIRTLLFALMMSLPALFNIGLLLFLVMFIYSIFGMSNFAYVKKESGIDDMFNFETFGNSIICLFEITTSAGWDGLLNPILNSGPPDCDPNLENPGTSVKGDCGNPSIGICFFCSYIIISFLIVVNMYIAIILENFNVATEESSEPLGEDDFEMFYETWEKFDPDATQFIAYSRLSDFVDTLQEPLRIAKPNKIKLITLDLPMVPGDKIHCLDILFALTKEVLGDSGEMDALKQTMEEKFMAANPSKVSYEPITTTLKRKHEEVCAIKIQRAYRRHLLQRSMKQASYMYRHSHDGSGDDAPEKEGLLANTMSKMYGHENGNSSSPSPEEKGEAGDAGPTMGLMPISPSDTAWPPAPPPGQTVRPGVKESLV

Turning to `C#CC[C@@H]1NC(=O)[C@@H]2CSSC[C@H](NC(=O)[C@H](Cc3ccc(O)cc3)NC(=O)[C@@H](N)CC#N)C(=O)N[C@@H](CCC(N)=O)C(=O)N[C@@H](CCCCN)C(=O)N[C@@H](Cc3c[nH]c4ccccc34)C(=O)N[C@@H](CCCC)C(=O)N[C@@H](Cc3c[nH]c4ccccc34)C(=O)N[C@@H]([C@@H](C)O)C(=O)N[C@H]3CSSC[C@H](NC(=O)[C@H](CCC(=O)O)NC(=O)[C@H](CC(C)C)NC(=O)CNC1=O)C(=O)N[C@@H](CCCCN)C(=O)N[C@@H](CC(C)C)C(=O)N[C@@H](Cc1c[nH]c4ccccc14)C(=O)N[C@H](C(=O)N[C@@H](CCCNC(=N)N)C(=O)N[C@@H](CCCCN)C(=O)N[C@@H](Cc1ccc(O)cc1)C(=O)N[C@H](C(N)=O)[C@@H](C)CC)CSSC[C@H](NC(=O)[C@H](C)NC(=O)[C@H](CCCNC(=N)N)NC(=O)[C@H](CCCCN)NC(=O)[C@H](CO)NC(=O)[C@H](CC(=O)O)NC3=O)C(=O)N2` [compound 397], the Nav1.4/Nav1.7 on hNav1.4 stood at 20.

Turning to `CSCC[C@@H]1NC(=O)[C@H](Cc2c[nH]c3ccccc23)NC(=O)[C@H](CCCCN)NC(=O)[C@H](CCC(N)=O)NC(=O)[C@@H](NC(=O)[C@@H](N)Cc2ccc(O)cc2)CSSC[C@@H]2NC(=O)[C@@H]3CSSC[C@@H](C(=O)N[C@@H](CCCNC(=N)N)C(=O)N[C@@H](CCCCN)C(=O)N[C@@H](Cc4ccc(O)cc4)C(=O)N[C@@H](Cc4ccc5ccccc5c4)C(N)=O)NC(=O)[C@H](Cc4c[nH]c5ccccc45)NC(=O)[C@H](CC(C)C)NC(=O)[C@H](CCCCN)NC(=O)[C@H](CSSC[C@H](NC(=O)[C@H]([C@@H](C)O)NC(=O)[C@H](Cc4c[nH]c5ccccc45)NC1=O)C(=O)N[C@@H](CC(=O)O)C(=O)N[C@@H](CO)C(=O)N[C@@H](CCCCN)C(=O)N[C@@H](CCCNC(=N)N)C(=O)N[C@@H](C)C(=O)N3)NC(=O)[C@H](CCC(=O)O)NC(=O)[C@H](CC(C)C)NC(=O)CNC(=O)[C@H](CCC(=O)O)NC2=O` [compound 233], at hNav1.7, the Nav1.4/Nav1.7 came out at 265 and the Nav1.5/Nav1.7 is given as 433.

Take `C#CC[C@@H]1NC(=O)[C@@H]2CSSC[C@H](NC(=O)[C@H](Cc3ccc(O)cc3)NC(=O)[C@@H](N)CC#N)C(=O)N[C@@H](CCC(N)=O)C(=O)N[C@@H](CCCCN)C(=O)N[C@@H](Cc3c[nH]c4ccccc34)C(=O)N[C@@H](CCCC)C(=O)N[C@@H](Cc3c[nH]c4ccccc34)C(=O)N[C@@H]([C@@H](C)O)C(=O)N[C@H]3CSSC[C@H](NC(=O)[C@H](CCCNC(=N)N)NC(=O)[C@H](CC(C)C)NC(=O)CNC1=O)C(=O)N[C@@H](CCCCN)C(=O)N[C@@H](CC(C)C)C(=O)N[C@@H](Cc1c[nH]c4cc(Br)ccc14)C(=O)N[C@H](C(=O)N[C@@H](CCCNC(=N)N)C(=O)N[C@@H](CCCCN)C(=O)N[C@@H](CCC(=O)O)C(=O)N[C@H](C(N)=O)[C@@H](C)CC)CSSC[C@H](NC(=O)[C@H](C)NC(=O)[C@H](CCCNC(=N)N)NC(=O)[C@H](CCCCN)NC(=O)[C@H](CO)NC(=O)[C@H](CC(=O)O)NC3=O)C(=O)N2` [compound 873]: the IC50 at hNav1.7 (setting [1]) is 8.47 nM.

Take `C#CC[C@H](N)C(=O)N[C@@H](Cc1ccc(O)cc1)C(=O)N[C@H]1CSSC[C@@H]2NC(=O)[C@@H]3CSSC[C@@H](C(=O)N[C@@H](CCCNC(=N)N)C(=O)N[C@@H](CCCCN)C(=O)N[C@@H](CCC(=O)O)C(=O)N[C@H](C(N)=O)[C@@H](C)CC)NC(=O)[C@H](Cc4ccccc4)NC(=O)[C@H](CC(C)C)NC(=O)[C@H](CCCCN)NC(=O)[C@H](CSSC[C@H](NC(=O)[C@H]([C@@H](C)O)NC(=O)[C@H](Cc4c[nH]c5ccccc45)NC(=O)[C@H](CCCC)NC(=O)[C@H](Cc4c[nH]c5ccccc45)NC(=O)[C@H](CCCCN)NC(=O)[C@H](CCC(N)=O)NC1=O)C(=O)N[C@@H](CC(=O)O)C(=O)N[C@@H](CO)C(=O)N[C@@H](CCCCN)C(=O)N[C@@H](CCCNC(=N)N)C(=O)N[C@@H](C)C(=O)N3)NC(=O)[C@H](CCCNC(=N)N)NC(=O)[C@H](CC(C)C)NC(=O)CNC(=O)[C@H](CCC(=O)O)NC2=O` [compound 853]: the IC50 on hNav1.7 (setting [1]) is 15.3 nM.

As for `C#CC[C@H](N)C(=O)N[C@@H](Cc1ccc(O)cc1)C(=O)N[C@H]1CSSC[C@@H]2NC(=O)[C@@H]3CSSC[C@@H](C(=O)N[C@@H](CCCNC(=N)N)C(=O)N[C@@H](CCCCN)C(=O)N[C@@H](CCC(=O)O)C(=O)N[C@H](C(N)=O)[C@@H](C)CC)NC(=O)[C@H](Cc4c[nH]c5ccccc45)NC(=O)[C@H](CC(C)C)NC(=O)[C@H](CCCCN)NC(=O)[C@H](CSSC[C@H](NC(=O)[C@H]([C@@H](C)O)NC(=O)[C@H](Cc4c[nH]c5ccccc45)NC(=O)[C@H](CCCC)NC(=O)[C@H](Cc4c[nH]c5ccccc45)NC(=O)[C@H](CCCCN)NC(=O)[C@H](CCC(N)=O)NC1=O)C(=O)N[C@@H](CC(=O)O)C(=O)N[C@@H](CO)C(=O)N[C@@H](CCCCN)C(=O)N[C@@H](CCCNC(=N)N)C(=O)N[C@@H](C)C(=O)N3)NC(=O)[C@H](CCCNC(=N)N)NC(=O)[C@H](CCCCN)NC(=O)CNC(=O)[C@H](CCC(=O)O)NC2=O` [compound 704], the IC50 on hNav1.7 (setting [1]) is more than 1000 nM.

For `CSCC[C@@H]1NC(=O)[C@H](Cc2c[nH]c3ccccc23)NC(=O)[C@H](CCCCN)NC(=O)[C@H](CCC(N)=O)NC(=O)[C@@H](NC(=O)[C@@H](N)Cc2ccc(O)cc2)CSSC[C@@H]2NC(=O)[C@@H]3CSSC[C@@H](C(=O)N[C@@H](CCCNC(=N)N)C(=O)N[C@@H](CCCCN)C(=O)N[C@@H](Cc4ccc(O)cc4)C(=O)N[C@@H](CC(C)C)C(N)=O)NC(=O)[C@H](Cc4c[nH]c5ccccc45)NC(=O)[C@H](CC(C)C)NC(=O)[C@H](CCCCN)NC(=O)[C@H](CSSC[C@H](NC(=O)[C@H]([C@@H](C)O)NC(=O)[C@H](Cc4c[nH]c5ccccc45)NC1=O)C(=O)N[C@@H](CC(=O)O)C(=O)N[C@@H](CO)C(=O)N[C@@H](CCCCN)C(=O)N[C@@H](CCCNC(=N)N)C(=O)N[C@@H](C)C(=O)N3)NC(=O)[C@H](CCC(=O)O)NC(=O)[C@H](CC(C)C)NC(=O)CNC(=O)[C@H](CCC(=O)O)NC2=O` [compound 238], at hNav1.7, the Nav1.4/Nav1.7 worked out at 241 and the Nav1.5/Nav1.7 is 2817.

For `C#CC[C@H](N)C(=O)N[C@@H](Cc1ccc(O)cc1)C(=O)N[C@H]1CSSC[C@@H]2NC(=O)[C@@H]3CSSC[C@@H](C(=O)N[C@@H](CCCNC(=N)N)C(=O)N[C@@H](CCCCN)C(=O)N[C@@H](CCC(=O)O)C(=O)N[C@H](C(N)=O)[C@@H](C)CC)NC(=O)[C@H](Cc4cccc5ccccc45)NC(=O)[C@H](CC(C)C)NC(=O)[C@H](CCCCN)NC(=O)[C@H](CSSC[C@H](NC(=O)[C@H]([C@@H](C)O)NC(=O)[C@H](Cc4c[nH]c5ccccc45)NC(=O)[C@H](CCCC)NC(=O)[C@H](Cc4c[nH]c5ccccc45)NC(=O)[C@H](CCCCN)NC(=O)[C@H](CCC(N)=O)NC1=O)C(=O)N[C@@H](CC(=O)O)C(=O)N[C@@H](CO)C(=O)N[C@@H](CCCCN)C(=O)N[C@@H](CCCNC(=N)N)C(=O)N[C@@H](C)C(=O)N3)NC(=O)[C@H](CCCNC(=N)N)NC(=O)[C@H](CC(C)C)NC(=O)CNC(=O)[C@H](CCC(=O)O)NC2=O` [compound 851], the IC50 on hNav1.7 (setting [1]) stood at 32 nM.

For `CCCC[C@@H]1NC(=O)[C@H](Cc2c[nH]c3ccccc23)NC(=O)[C@H](CCCCN)NC(=O)[C@H](CCC(N)=O)NC(=O)[C@@H](NC(=O)[C@H](Cc2ccc(O)cc2)NC(=O)[C@@H](N)CCCC)CSSC[C@@H]2NC(=O)[C@@H]3CSSC[C@@H](C(=O)N[C@@H](CCCNC(=N)N)C(=O)N[C@@H](CCCCN)C(=O)N[C@H](C(=O)N[C@H](C(N)=O)[C@@H](C)CC)[C@@H](C)CC)NC(=O)[C@H](Cc4c[nH]c5ccccc45)NC(=O)[C@H](CC(C)C)NC(=O)[C@H](CCCCN)NC(=O)[C@H](CSSC[C@H](NC(=O)[C@H]([C@@H](C)O)NC(=O)[C@H](Cc4c[nH]c5ccccc45)NC1=O)C(=O)N[C@@H](CC(=O)O)C(=O)N[C@@H](CO)C(=O)N[C@@H](CCCCN)C(=O)N[C@@H](CCCNC(=N)N)C(=O)N[C@@H](C)C(=O)N3)NC(=O)[C@H](CCCNC(=N)N)NC(=O)[C@H](CC(C)C)NC(=O)CNC(=O)[C@H](CCC(=O)O)NC2=O` [compound 370], at hNav1.7, the Nav1.4/Nav1.7 is on record as 21 and the Nav1.5/Nav1.7 is on record as 3729.

Consider `CCCC[C@@H]1NC(=O)[C@H](Cc2c[nH]c3ccccc23)NC(=O)[C@H](CCCCN)NC(=O)[C@H](CCC(N)=O)NC(=O)[C@@H](NC(=O)[C@H](Cc2ccc(O)cc2)NC(=O)[C@@H](N)Cc2cn(CCOCCOCCOCCOCCOCCOCCOCCOCCOCCOCCOCCOCCOCCOCCOCCOCCOCCOCCOCCOCCOCCOCCOCCNC(=O)c3cc(CNC(=O)CSCc4ccccc4)cc(C(=O)NCCOCCOCCOCCOCCOCCOCCOCCOCCOCCOCCOCCOCCOCCOCCOCCOCCOCCOCCOCCOCCOCCOCCOCCn4cc(C[C@H](N)C(=O)N[C@@H](Cc5ccc(O)cc5)C(=O)N[C@H]5CSSC[C@@H]6NC(=O)[C@@H]7CSSC[C@@H](C(=O)N[C@@H](CCCNC(=N)N)C(=O)N[C@@H](CCCCN)C(=O)N[C@H](C(=O)N[C@H](C(N)=O)[C@@H](C)CC)[C@@H](C)CC)NC(=O)[C@H](Cc8c[nH]c9ccccc89)NC(=O)[C@H](CC(C)C)NC(=O)[C@H](CCCCN)NC(=O)[C@H](CSSC[C@H](NC(=O)[C@H]([C@@H](C)O)NC(=O)[C@H](Cc8c[nH]c9ccccc89)NC(=O)[C@H](CCCC)NC(=O)[C@H](Cc8c[nH]c9ccccc89)NC(=O)[C@H](CCCCN)NC(=O)[C@H](CCC(N)=O)NC5=O)C(=O)N[C@@H](CC(=O)O)C(=O)N[C@@H](CO)C(=O)N[C@@H](CCCCN)C(=O)N[C@@H](CCCNC(=N)N)C(=O)N[C@@H](C)C(=O)N7)NC(=O)[C@H](CCCNC(=N)N)NC(=O)[C@H](CC(C)C)NC(=O)CNC(=O)[C@H](CCC(=O)O)NC6=O)nn4)c3)nn2)CSSC[C@@H]2NC(=O)[C@@H]3CSSC[C@@H](C(=O)N[C@@H](CCCNC(=N)N)C(=O)N[C@@H](CCCCN)C(=O)N[C@H](C(=O)N[C@H](C(N)=O)[C@@H](C)CC)[C@@H](C)CC)NC(=O)[C@H](Cc4c[nH]c5ccccc45)NC(=O)[C@H](CC(C)C)NC(=O)[C@H](CCCCN)NC(=O)[C@H](CSSC[C@H](NC(=O)[C@H]([C@@H](C)O)NC(=O)[C@H](Cc4c[nH]c5ccccc45)NC1=O)C(=O)N[C@@H](CC(=O)O)C(=O)N[C@@H](CO)C(=O)N[C@@H](CCCCN)C(=O)N[C@@H](CCCNC(=N)N)C(=O)N[C@@H](C)C(=O)N3)NC(=O)[C@H](CCCNC(=N)N)NC(=O)[C@H](CC(C)C)NC(=O)CNC(=O)[C@H](CCC(=O)O)NC2=O` [Homodimeric Peptide No. 2], for which the Wash out entry at hNav1.7 (PatchXpress Nav1.7, whether block washes out (Yes/No)) is recorded as “No”. Also, the IC50 at hNav1.7 (read-out: Nav1.7 PX IC50) came to 0.241 nM.
